Experimental data published in patent US8957062B2, “Substituted cyclopropyl compounds, compositions containing such compounds and methods of treatment” (Merck Sharp & Dohme Corp., priority 2011, dated 2015).
Like-named read-outs stand apart in the source and are kept apart here.

Molecular target: T1, human GPR119 (Homo sapiens, UniProt Q8TDV5)
T1 sequence (Q8TDV5 1-308 limits assumed): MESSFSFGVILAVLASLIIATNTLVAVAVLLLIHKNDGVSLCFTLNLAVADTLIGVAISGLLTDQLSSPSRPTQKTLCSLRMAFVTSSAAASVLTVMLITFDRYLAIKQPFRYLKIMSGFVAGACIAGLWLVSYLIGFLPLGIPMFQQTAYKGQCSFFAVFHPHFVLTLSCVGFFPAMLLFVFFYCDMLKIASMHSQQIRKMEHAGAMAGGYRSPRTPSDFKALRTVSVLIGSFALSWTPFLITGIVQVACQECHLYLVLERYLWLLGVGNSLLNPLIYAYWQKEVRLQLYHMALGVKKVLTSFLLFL
Experiment: Measurement of GPR119 signaling (cAMP assay) in cells stably transfected with human GPR119
Assay type: cell-based
Settings: cAMP stimulation

[1] = table column, human GPR119, read-out: GPR119 Human EC50
[2] = stated in the example text, human GPR119, read-out: GPR119 Human EC50

Row | SMILES | EC50 [1] [nM] | further results
1 | CC1(COC(=O)N2CCC([C@H]3C[C@H]3CCOc3ccc(S(C)(=O)=O)cn3)CC2)CC1 [Example 23] | 0.6 | 
2 | CC(C)c1noc(N2CCC([C@H]3C[C@H]3CCOc3ccc(S(C)(=O)=O)c(F)c3)CC2)n1 [Example 119] | 1.3 | 
3 | CC(C)c1noc(N2CCC([C@H]3C[C@H]3CCOc3ccc(CC(=O)N4CCc5ccsc5C4)c(F)c3)CC2)n1 [Example 173] | 2.2 | 
4 | CC1(OC(=O)N2CCC([C@H]3C[C@H]3CCOc3ccc(S(C)(=O)=O)cn3)CC2)CCC1 [Example 21] | 0.6 | 
5 | CCN(CC)C(=O)Cc1ccc(OCC[C@@H]2C[C@@H]2C2CCN(c3nc(C(C)C)no3)CC2)cc1 [Example 136] | 3.9 | 
6 | COC1CN(C(=O)Cc2ccc(OCC[C@@H]3C[C@@H]3C3CCN(c4nc(C(C)C)no4)CC3)cc2)C1 [Example 135] | 8.5 | 
7 | CS(=O)(=O)c1ccc(OCC[C@@H]2C[C@@H]2C2CCN(C(=O)CC3CCC3)CC2)nc1 [Example 87] | 13 | 
8 | CS(=O)(=O)c1ccc(OCC[C@@H]2C[C@@H]2C2CCN(C(=O)CC3CCC3)CC2)cc1F [Example 92] | 10 | 
9 | Cc1cc(OCC[C@@H]2C[C@@H]2C2CCN(c3nc(C(C)C)no3)CC2)ccc1CC(=O)N1CCC1 [Example 102] |  | EC50 (read-out: GPR119 HumC EC50): 1.1 nM
10 | CC(C)c1noc(N2CCC([C@H]3C[C@H]3CCOc3ccc(CC(=O)N4CC(n5cccn5)C4)c(F)c3)CC2)n1 [Example 187] | 3 | 
11 | CC(C)(CC(=O)N1CCC([C@H]2C[C@H]2CCOc2ccc(-n3cnnn3)cc2)CC1)C1CC1 [Example 80] | 4 | 
12 | CC1(c2nc(N3CCC([C@H]4C[C@H]4CCOc4ccc(S(C)(=O)=O)cn4)CC3)no2)CC1 [Example 240] | 5.2 | 
13 | CC(C)c1noc(N2CCC([C@H]3C[C@H]3CCOc3ccc(CC(=O)N4CC(O)C4)c(F)c3)CC2)n1 [Example 139] | 6 | 
14 | COc1cc(OCC[C@@H]2C[C@@H]2C2CCN(c3nc(C(C)C)no3)CC2)ccc1-n1cnnn1 [Example 125] | 11 | 
15 | CC(C)c1noc(N2CCC([C@H]3C[C@H]3CCOc3ccc(CC(=O)N4Cc5cccnc5C4)c(F)c3)CC2)n1 [Example 159] | 0.93 | 
16 | Cc1nc(C#N)cc(OCC[C@@H]2C[C@@H]2C2CCN(C(=O)OC(C)(C)C)CC2)n1 [Example 47] | 0.2 | 
17 | CCS(=O)(=O)c1ccc(OCC[C@@H]2C[C@@H]2C2CCN(c3nc(C(C)C)no3)CC2)cc1 [Example 29] | 7.7 | 
18 | CC(C)(C)OC(=O)N1CCC([C@H]2C[C@H]2CCOc2cc(F)c(C(=O)C3CC3)c(F)c2)CC1 [Example 52] | 0.2 | 
19 | CC(C)c1noc(N2CCC([C@H]3C[C@H]3CCOc3ccc(CC(=O)N4CCOCC4)cc3)CC2)n1 [Example 133] | 6 | 
20 | Cc1cc(CC(=O)N(C)C)cnc1OCC[C@@H]1C[C@@H]1C1CCN(c2nc(C(C)C)no2)CC1 [Example 263] | 14 | 
21 | CC(C)c1noc(N2CCC([C@H]3C[C@H]3CCOc3ccc(-n4cnnn4)cn3)CC2)n1 [Example 231] | 0.4 | 
22 | CC(C)c1noc(N2CCC([C@H]3C[C@H]3CCOc3ccc(CC(=O)N4CCC4)cc3)CC2)n1 [Example 128] | 1.8 | 
23 | CCCC(=O)c1c(F)cc(OCC[C@@H]2C[C@@H]2C2CCN(c3nc(C(C)C)no3)CC2)cc1F [Example 121] | 0.1 | 
24 | CC(C)CC(=O)N1CCC([C@H]2C[C@H]2CCOc2ccc(S(C)(=O)=O)cn2)CC1 [Example 86] | 29 | 
25 | O=C(OCc1ccccc1)N1CCC([C@H]2C[C@H]2CCOc2ccc(-n3cnnn3)cn2)CC1 [Example 33] | 15 | 
26 | CCC1(OC(=O)N2CCC([C@H]3C[C@H]3CCOc3ccc(CC(=O)N4CCC4)c(F)c3)CC2)CC1 [Example 74] |  | EC50 (read-out: GPR119 HumC EC50): 2.7 nM
27 | CC1(OC(=O)N2CCC([C@H]3C[C@H]3CCOc3ccc(-n4cnnn4)cc3)CC2)CCC1 [Example 10] | 0.3 | 
28 | CC1(OC(=O)N2CCC([C@H]3C[C@H]3CCOc3ccc(-n4cncn4)cn3)CC2)CC1 [Example 34, 1-methylcyclopropyl 4-[(1R,2S)-2-(2-{[5-(1H-1,2,4-triazol-1-yl)pyridin-2-yl]oxy}ethyl)cyclopropyl]piperidine-1-carboxylate] |  | EC50 [2]: 0.88 nM

Row | SMILES | EC50 [1] [nM] | further results
29 | CC(C)(C)OC(=O)N1CCC([C@H]2C[C@H]2CCOc2ccc(S(C)(=O)=O)cc2)CC1 [Example 35, tert-butyl 4-((1R,2S)-2-{2-[4-(methylsulfonyl)phenoxy]ethyl}cyclopropyl) piperidine-1-carboxylate] |  | EC50 [2]: 0.9 nM
30 | CC(C)(C)COC(=O)N1CCC([C@H]2C[C@H]2CCOc2ccc(S(C)(=O)=O)c(F)c2)CC1 [Example 41] | 0.4 | 
31 | CCOC(=O)N1CCC([C@H]2C[C@H]2CCOc2ccc(S(C)(=O)=O)cn2)CC1 [Example 20] | 22 | 
32 | Cc1cc(CC(=O)N2CCC(C)CC2)cnc1OCC[C@@H]1C[C@@H]1C1CCN(c2nc(C(C)C)no2)CC1 [Example 259] | 18 | 
33 | COC1CN(C(=O)Cc2cnc(OCC[C@@H]3C[C@@H]3C3CCN(c4nc(C(C)C)no4)CC3)c(C)c2)C1 [Example 261] | 19 | 
34 | CCOC(=O)N1CCC([C@H]2C[C@H]2CCOc2cc(C#N)nc(C)n2)CC1 [Example 45] | 3.6 | 
35 | CC(C)c1noc(N2CCC([C@H]3C[C@H]3CCOc3ccc(CC(=O)N(C)Cc4cc[nH]n4)c(F)c3)CC2)n1 [Example 167] | 3.1 | 
36 | COCc1nc(N2CCC([C@H]3C[C@H]3CCOc3ccc(S(C)(=O)=O)cn3)CC2)no1 [Example 245] | 8.1 | 
37 | CC(C)c1noc(N2CCC([C@H]3C[C@H]3CCOc3ccc(CC(=O)N4C[C@H](F)[C@@H](F)C4)c(F)c3)CC2)n1 [Example 158] | 1.1 | 
38 | CC(C)c1noc(N2CCC([C@H]3C[C@H]3CCOc3ccc(CC(=O)N4Cc5nnc(C(F)(F)F)n5C(C)(C)C4)c(F)c3)CC2)n1 [Example 185] | 8.8 | 
39 | CC(C)c1noc(N2CCC([C@H]3C[C@H]3CCOc3cc(F)c(CC(=O)N(C)C)c(F)c3)CC2)n1 [Example 111] |  | EC50 (read-out: GPR119 HumC EC50): 0.26 nM
40 | O=C(NC1CC1)c1c(F)cc(OCC[C@@H]2C[C@@H]2C2CCN(C(=O)CCC(F)(F)F)CC2)cc1F [Example 97] | 3.5 | 
41 | O=C(c1c(F)cc(OCC[C@@H]2C[C@@H]2C2CCN(c3nnc4ncccn34)CC2)cc1F)C1CC1 [Example 253] | 3 | 
42 | CC(C)c1noc(N2CCC([C@H]3C[C@H]3CCOc3ccc(CC(=O)N4CCCC4)cc3)CC2)n1 [Example 126] | 1.4 | 
43 | COCc1noc(N2CCC([C@H]3C[C@H]3CCOc3ccc(CC(=O)N4CCC4)c(F)c3)CC2)n1 [Example 115, 4-[(1R,2S)-2-{2-[4-(2-azetidin-1-yl-2-oxoethyl)-3-fluorophenoxy]ethyl}cyclopropyl]-1-[3-(methoxymethyl)-1,2,4-oxadiazol-5-yl]piperidine] |  | EC50 [2]: 5.8 nM
44 | Cc1nc(C#N)cc(OCC[C@@H]2C[C@@H]2C2CCN(c3nnc4ncccn34)CC2)n1 [Example 254] | 25 | 
45 | Cc1nc2c(o1)CCN(C(=O)Cc1ccc(OCC[C@@H]3C[C@@H]3C3CCN(c4nc(C(C)C)no4)CC3)cc1F)C2 [Example 196] | 1.4 | 
46 | CC(C)(C)c1nc(N2CCC([C@H]3C[C@H]3CCOc3ccc(S(C)(=O)=O)cn3)CC2)no1 [Example 236] | 1.7 | 
47 | CC(C)c1noc(N2CCC([C@H]3C[C@H]3CCOc3ccc(CC(=O)N4CC(F)(F)C4)c(F)c3)CC2)n1 [Example 147] | 0.55 | 
48 | CC(C)OC(=O)N1CCC([C@H]2C[C@H]2CCOc2ccc(S(C)(=O)=O)cn2)CC1 [Example 16] | 46 | 
49 | CS(=O)(=O)c1ccc(OCC[C@@H]2C[C@@H]2C2CCN(C(=O)OCC3CC3)CC2)nc1 [Example 13, cyclopropylmethyl 4-((1R,2S)-2-(2-(5-(methylsulfonyl)pyridin-2-yloxy)ethyl)cyclopropyl)piperidine-1-carboxylate] |  | EC50 [2]: 0.3 nM
50 | Cc1cc(OCC[C@@H]2C[C@@H]2C2CCN(c3nc(C(C)C)no3)CC2)ccc1-n1cnnn1 [Example 124] | 2.6 | 
51 | CC1(OC(=O)N2CCC([C@H]3C[C@H]3CCOc3ccc(S(=O)(=O)C4CC4)c(F)c3)CC2)CC1 [Example 43] | 1 | 
52 | COCc1noc(N2CCC([C@H]3C[C@H]3CCOc3ccc(CC(=O)N4CC(F)(F)C4)c(F)c3)CC2)n1 [Example 200] | 1.2 | 
53 | CC(C)c1noc(N2CCC([C@H]3C[C@H]3CCOc3ccc(-n4cnnn4)cc3)CC2)n1 [Example 98, 5-(4-((1R,2S)-2-(2-(4-(1H-tetrazol-1-yl)phenoxy)ethyl)cyclopropyl)piperidin-1-yl)-3-isopropyl-1,2,4-oxadiazole] |  | EC50 [2]: 11.8 nM
54 | COCc1noc(N2CCC([C@H]3C[C@H]3CCOc3ccc(S(C)(=O)=O)cc3)CC2)n1 [Example 221] | 3.4 | 
55 | CC(C)COC(=O)N1CCC([C@H]2C[C@H]2CCOc2ccc(-n3cnnn3)cc2)CC1 [Example 1, isobutyl 4-((1R,2S)-2-(2-(4-(1H-tetrazol-1-yl)phenoxy)ethyl)cyclopropyl)piperidine-1-carboxylate] |  | EC50 [2]: 1.6 nM
